The subject of one test is 621-103 (TSC2-rescued). Description: relative viability vs DMSO; higher = less cytotoxic. The settings on record: serum: 10% FBS, 72 h.
A further test concerns 621-102 (TSC2-deficient). The test is described as above. As to conditions: serum: 10% FBS, 72 h.

Each structure is given as a SMILES string. Where a name gives a salt, the structure may show the parent alone. ± gives the standard error.

Results on 9 compounds are retold here after the supplement of paper PMC8960247.
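Further: immortalized renal angiomyolipoma cells stably carrying empty vector or TSC2, dosed in 384-well plates in DMEM, viability normalized to vehicle-treated wells within each plate.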

Take `CCCCCOC(=O)Nc1nc(=O)n([C@@H]2O[C@H](C)[C@@H](O)[C@H]2O)cc1F` [Capecitabine (Xeloda)]: the relative viability in the test with 621-103 (TSC2-rescued) (0.0001 µM) came to 103 ± 1.9%; with 621-103 (TSC2-rescued) (0.001 µM), 99.6 ± 1.4%; in the test with 621-103 (TSC2-rescued) (0.01 µM), 101.3 ± 0.12%; in the test on 621-103 (TSC2-rescued) (0.1 µM) it was 99.27 ± 0.86%; in the test on 621-103 (TSC2-rescued) (1 µM), 99.79 ± 0.64%; in the test with 621-103 (TSC2-rescued) (10 µM), 100 ± 1.3%. Further, the relative viability is 108.6 ± 0.75% in the test on 621-102 (TSC2-deficient) (0.0001 µM); 112.3 ± 1.1% with 621-102 (TSC2-deficient) (0.001 µM); 110 ± 2.9% with 621-102 (TSC2-deficient) (0.01 µM); 106 ± 1.7% with 621-102 (TSC2-deficient) (0.1 µM); 110.4 ± 0.14% in the test with 621-102 (TSC2-deficient) (1 µM); 100.35 ± 0.077% with 621-102 (TSC2-deficient) (10 µM).
For `CCC[C@H](N[C@@H](C)C(=O)N1[C@H](C(=O)O)C[C@@H]2CCCC[C@@H]21)C(=O)OCC` [Perindopril Erbumine], the relative viability came out at 103.3 ± 0.76% with 621-103 (TSC2-rescued) (0.0001 µM); 108.5 ± 0.44% in the test on 621-103 (TSC2-rescued) (0.001 µM); 84.6 ± 1.6% in the test on 621-103 (TSC2-rescued) (0.01 µM); 111 ± 3.4% in the test with 621-103 (TSC2-rescued) (0.1 µM); 98.7 ± 11% in the test with 621-103 (TSC2-rescued) (1 µM); 79.52 ± 0.69% with 621-103 (TSC2-rescued) (10 µM). Moreover, the relative viability in the test on 621-102 (TSC2-deficient) (0.0001 µM) stood at 101 ± 0.48%; with 621-102 (TSC2-deficient) (0.001 µM), 106 ± 0.46%; in the test with 621-102 (TSC2-deficient) (0.01 µM), 98.6 ± 1.7%; in the test with 621-102 (TSC2-deficient) (0.1 µM), 104.3 ± 0.76%; in the test on 621-102 (TSC2-deficient) (1 µM) it was 107.29 ± 0.055%; with 621-102 (TSC2-deficient) (10 µM) it was 73.7 ± 4.8%.
For the compound `Cc1ncc(-c2ccnc(Nc3ccc(S(C)(=O)=O)cc3)n2)n1C(C)C` [AZD5438], the relative viability with 621-103 (TSC2-rescued) (0.0001 µM) came out at 110.9 ± 0.22%; in the test with 621-103 (TSC2-rescued) (0.001 µM), 105.8 ± 0.22%; in the test with 621-103 (TSC2-rescued) (0.01 µM), 98.7 ± 4.7%; in the test on 621-103 (TSC2-rescued) (0.1 µM), 108 ± 1.6%; in the test with 621-103 (TSC2-rescued) (1 µM) it was 89.4 ± 2.3%; in the test on 621-103 (TSC2-rescued) (10 µM) it was 27.7 ± 0.92%. In addition, the relative viability is 103 ± 7.6% in the test with 621-102 (TSC2-deficient) (0.0001 µM); 101 ± 1.4% in the test with 621-102 (TSC2-deficient) (0.001 µM); 95.4 ± 1.6% in the test with 621-102 (TSC2-deficient) (0.01 µM); 99.55 ± 0.14% with 621-102 (TSC2-deficient) (0.1 µM); 88.1 ± 1.8% in the test with 621-102 (TSC2-deficient) (1 µM); 11.69 ± 0.054% in the test with 621-102 (TSC2-deficient) (10 µM).
With `CCN(CC)CCOc1ccc(C(=C(Cl)c2ccccc2)c2ccccc2)cc1` [Clomifene citrate (Serophene)], the relative viability in the test with 621-103 (TSC2-rescued) (0.0001 µM) turned out to be 102 ± 3.5%; with 621-103 (TSC2-rescued) (0.001 µM) it was 99.3 ± 1.9%; in the test on 621-103 (TSC2-rescued) (0.01 µM), 97.2 ± 5.9%; with 621-103 (TSC2-rescued) (0.1 µM), 96.14 ± 0.13%; with 621-103 (TSC2-rescued) (1 µM) it was 101 ± 4.7%; in the test on 621-103 (TSC2-rescued) (10 µM), 14 ± 0.71%. In addition, the relative viability came to 108 ± 1.1% in the test with 621-102 (TSC2-deficient) (0.0001 µM); 105 ± 6% in the test with 621-102 (TSC2-deficient) (0.001 µM); 104 ± 3.9% in the test with 621-102 (TSC2-deficient) (0.01 µM); 102 ± 2.1% with 621-102 (TSC2-deficient) (0.1 µM); 105 ± 1.7% in the test with 621-102 (TSC2-deficient) (1 µM); 58.6 ± 10% in the test with 621-102 (TSC2-deficient) (10 µM).
Turning to `Cc1[nH]c(/C=C2\C(=O)Nc3ccccc32)c(C)c1CCC(=O)O` [TSU-68], the relative viability in the test with 621-103 (TSC2-rescued) (0.0001 µM) turned out to be 101 ± 1.9%; with 621-103 (TSC2-rescued) (0.001 µM) it was 103 ± 1.2%; in the test on 621-103 (TSC2-rescued) (0.01 µM) it was 101 ± 2.4%; with 621-103 (TSC2-rescued) (0.1 µM) it was 102 ± 1.7%; with 621-103 (TSC2-rescued) (1 µM), 102 ± 1.9%; with 621-103 (TSC2-rescued) (10 µM), 95.7 ± 1.1%. Moreover, the relative viability in the test on 621-102 (TSC2-deficient) (0.0001 µM) stood at 94 ± 1.4%; in the test with 621-102 (TSC2-deficient) (0.001 µM), 106 ± 3.3%; in the test on 621-102 (TSC2-deficient) (0.01 µM), 119 ± 3.6%; in the test on 621-102 (TSC2-deficient) (0.1 µM), 110 ± 2.1%; with 621-102 (TSC2-deficient) (1 µM) it was 91.7 ± 3.8%; with 621-102 (TSC2-deficient) (10 µM), 95.8 ± 2.4%.
`NC(=O)N1c2ccccc2C=Cc2ccccc21` [Carbamazepine (Carbatrol)]: the relative viability is 101.9 ± 0.54% in the test with 621-103 (TSC2-rescued) (0.0001 µM); 105.8 ± 0.3% with 621-103 (TSC2-rescued) (0.001 µM); 103 ± 1.8% with 621-103 (TSC2-rescued) (0.01 µM); 107.7 ± 0.39% in the test with 621-103 (TSC2-rescued) (0.1 µM); 105 ± 0.35% in the test with 621-103 (TSC2-rescued) (1 µM); 98.871 ± 0.053% in the test on 621-103 (TSC2-rescued) (10 µM). For the same compound, the relative viability with 621-102 (TSC2-deficient) (0.0001 µM) came to 93.1 ± 3.9%; with 621-102 (TSC2-deficient) (0.001 µM), 96.7 ± 3.8%; with 621-102 (TSC2-deficient) (0.01 µM), 93.3 ± 3%; with 621-102 (TSC2-deficient) (0.1 µM), 101.1 ± 0.14%; in the test with 621-102 (TSC2-deficient) (1 µM) it was 108.4 ± 0.97%; in the test on 621-102 (TSC2-deficient) (10 µM), 94.54 ± 0.19%.
In the case of `COc1cccc(-c2cc(=O)c3ccccc3o2)c1N`, the relative viability with 621-103 (TSC2-rescued) (0.0001 µM) is 100 ± 2.6%; with 621-103 (TSC2-rescued) (0.001 µM), 99.7 ± 1.8%; in the test on 621-103 (TSC2-rescued) (0.01 µM), 103 ± 1.9%; in the test on 621-103 (TSC2-rescued) (0.1 µM), 99.8 ± 1.2%; in the test with 621-103 (TSC2-rescued) (1 µM), 98.6 ± 2.6%; in the test with 621-103 (TSC2-rescued) (10 µM), 97.6 ± 3.2%. Moreover, the relative viability in the test with 621-102 (TSC2-deficient) (0.0001 µM) was determined as 109 ± 2.8%; in the test on 621-102 (TSC2-deficient) (0.001 µM) it was 103 ± 3%; in the test with 621-102 (TSC2-deficient) (0.01 µM) it was 104.2 ± 0.83%; in the test with 621-102 (TSC2-deficient) (0.1 µM), 104 ± 6%; with 621-102 (TSC2-deficient) (1 µM) it was 107.8 ± 0.69%; with 621-102 (TSC2-deficient) (10 µM), 109 ± 2.6%.
Take `O=C(O)c1ccc2c(c1)nc(Nc1cccc(Cl)c1)c1ccncc12` [CX-4945]: the relative viability in the test on 621-103 (TSC2-rescued) (0.0001 µM) came to 109 ± 5.8%; in the test with 621-103 (TSC2-rescued) (0.001 µM), 106.3 ± 0.77%; in the test with 621-103 (TSC2-rescued) (0.01 µM), 111 ± 7.9%; in the test on 621-103 (TSC2-rescued) (0.1 µM), 106 ± 3%; in the test on 621-103 (TSC2-rescued) (1 µM), 104 ± 3.2%; in the test on 621-103 (TSC2-rescued) (10 µM), 72.54 ± 0.24%. For the same compound, the relative viability in the test with 621-102 (TSC2-deficient) (0.0001 µM) was 95 ± 3.3%; in the test with 621-102 (TSC2-deficient) (0.001 µM), 93.1 ± 1.6%; in the test on 621-102 (TSC2-deficient) (0.01 µM), 102 ± 2.2%; in the test with 621-102 (TSC2-deficient) (0.1 µM) it was 103.8 ± 0.2%; with 621-102 (TSC2-deficient) (1 µM) it was 101 ± 2.9%; with 621-102 (TSC2-deficient) (10 µM) it was 80.4 ± 0.94%.
Turning to `COCCOC(=O)C1=C(C)NC(C)=C(C(=O)OC/C=C/c2ccccc2)C1c1cccc([N+](=O)[O-])c1` (stereo not drawn) [Cilnidipine], the relative viability is 98.6 ± 2.3% in the test with 621-103 (TSC2-rescued) (0.0001 µM); 104 ± 3.4% with 621-103 (TSC2-rescued) (0.001 µM); 105.9 ± 0.78% in the test with 621-103 (TSC2-rescued) (0.01 µM); 113 ± 2.5% in the test with 621-103 (TSC2-rescued) (0.1 µM); 100 ± 1.8% in the test on 621-103 (TSC2-rescued) (1 µM); 104 ± 3.1% in the test on 621-103 (TSC2-rescued) (10 µM). Also, the relative viability in the test with 621-102 (TSC2-deficient) (0.0001 µM) was 118 ± 4%; in the test on 621-102 (TSC2-deficient) (0.001 µM), 100.5 ± 0.18%; with 621-102 (TSC2-deficient) (0.01 µM), 102.6 ± 0.79%; with 621-102 (TSC2-deficient) (0.1 µM) it was 95.6 ± 1.2%; in the test on 621-102 (TSC2-deficient) (1 µM), 99.98 ± 0.81%; in the test on 621-102 (TSC2-deficient) (10 µM) it was 98 ± 2.2%.
